According to US6461997B1, “Triazole sulfones having herbicidal activity” (Monsanto Technology LLC, priority 1999, dated 2002):

Columns and labels:
SINAR (wild mustard) = test: Pre-emergence herbicidal activity, cool season; type: in vivo, Sinapis arvensis; conditions: lowest tested rate with 80% or greater inhibition; rates 300, 100, 30, 10 g/ha; about 14 days
Procedure, shortened: (§1)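 GR80 values derive from percent inhibition relative to untreated plants, read roughly 14 days after sowing and pre-emergence soil-surface treatment (compound in 50:50 acetone/water; rates typically 10, 30, 100, 300 g/ha). Warm-season weeds grew at 30/21° C day/night, cool-season ones at 18/13° C; an asterisk marks activity without reaching 80% at the highest rate.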

SASKR (russian thistle) = test: Pre-emergence herbicidal activity, cool season; type: in vivo, Salsola kali; conditions: lowest tested rate with 80% or greater inhibition; rates 300, 100, 30, 10 g/ha; about 14 days
Procedure, shortened: as §1

[1] = system: GALAP (catchweed bedstraw); test: Pre-plant incorporated (PPI) herbicidal activity, cool season; type: in vivo, Galium aparine; conditions: for PPI activity GR80, GALAP: pre-plant incorporated, lowest tested rate with 80% or greater inhibition, about 14 days
Procedure: (§2) In another set of tests, the pre-plant incorporated (PPI) activity of compounds of this invention was evaluated on the same species as for the pre-emergence tests described above. In the PPI tests the following procedure, designed to simulate PPI application, was used.
(§3) A pre-prepared topsoil mixture (described above) was placed in a pot and compacted to a depth of 1.0 to 1.25 cm from the top of the pot. Seeds of each of several monocotyledonous and dicotyledonous annual plant species were placed on top of the soil. A sufficient quantity of soil to cover the seeds and level fill the pot was weighed into an open container. A known amount of the test compound was dissolved or suspended in an organic solvent and applied by spraying to this cover soil. The cover soil was thoroughly mixed to distribute the test compound throughout the cover soil, and was then applied as a cover layer over the seeds. Untreated soil was used as a cover layer for control pots. After treatment the plants were placed in a greenhouse where they received 0.64 cm of overhead irrigation. All subsequent watering consisted of a light overhead mist and/or subirrigation as needed for germination and growth. Tables 9 and 10 below relate to warm season plant species which were placed after pre-emergence treatment in a greenhouse with a 30/21° C. day/night temperature regime. Tables 11 and 12 below relates to cool season plant species placed after pre-emergence treatment in a greenhouse or growth chamber with an 18/13° C. day/night temperature regime. Only the compounds of Examples 1, 6, 8, 11, 13 and 15-20 were included in PPI tests.
(§4) Approximately 14 days after planting and treating, the plants were observed and herbicidal efficacy recorded as percent inhibition by comparison with untreated plants.

ALOMY (blackgrass) = test: as above; type: in vivo, Alopecurus myosuroides; conditions: for PPI activity GR80, ALOMY: pre-plant incorporated, lowest tested rate with 80% or greater inhibition, about 14 days
Procedure: as §2, §3, §4

[2] = system: AGSST (creeping bentgrass); test: as above; type: in vivo, Agrostis stolonifera; conditions: for PPI activity GR80, AGSST: pre-plant incorporated, lowest tested rate with 80% or greater inhibition, about 14 days
Procedure: as §2, §3, §4

corn (ZEAMX) = test: Selectivity test, PPI, warm season crop; type: in vivo, Zea mays; conditions: PPI application; for inhibition at 30 g/ha / inhibition at 100 g/ha / inhibition at 300 g/ha / inhibition at 900 g/ha / inhibition at 10 g/ha: Zea mays, read-out: Percent inhibition ZEAMX
Procedure: as §3, §4
Additional pre-emergence and PPI tests were conducted by the procedures described above, on warm and cool season weed species in the presence of crop species, to assess herbicidal selectivity. Crop species included in warm season tests were corn (Zea mays, ZEAMX), rice (Oryza sativa, ORYSA) and soybean (Glycine max, GLYMX). Crop species included in cool season tests were wheat (Triticum aestivum, TRZAW), barley (Hordeunm vulgare, HORVX) and oilseed rape (Brassica napus, BRSNS).
Tables 15 and 16 relate to pre-emergence and PPI tests respectively on warm season species. Table 17 relates to pre-emergence tests on cool season species.

[3] = Galium aparine, weed, PPI application, 30 g/ha, read-out: Percent inhibition GALAP
[4] = Galium aparine, weed, PPI application, 100 g/ha, read-out: Percent inhibition GALAP
[5] = Galium aparine, weed, PPI application, 300 g/ha, read-out: Percent inhibition GALAP
[6] = Galium aparine, weed, PPI application, 900 g/ha, read-out: Percent inhibition GALAP
[7] = Alopecurus myosuroides, weed, PPI application, 30 g/ha, read-out: Percent inhibition ALOMY
[8] = Alopecurus myosuroides, weed, PPI application, 100 g/ha, read-out: Percent inhibition ALOMY
[9] = Alopecurus myosuroides, weed, PPI application, 300 g/ha, read-out: Percent inhibition ALOMY
[10] = Alopecurus myosuroides, weed, PPI application, 900 g/ha, read-out: Percent inhibition ALOMY
[11] = Agrostis stolonifera, weed, PPI application, 30 g/ha, read-out: Percent inhibition AGSST
[12] = Agrostis stolonifera, weed, PPI application, 100 g/ha, read-out: Percent inhibition AGSST
[13] = Agrostis stolonifera, weed, PPI application, 300 g/ha, read-out: Percent inhibition AGSST
[14] = Agrostis stolonifera, weed, PPI application, 900 g/ha, read-out: Percent inhibition AGSST
[15] = weed, PPI application, 100 g/ha
[16] = weed, PPI application, 300 g/ha
[17] = weed, PPI application, 900 g/ha

Compound | Pre-emergence activity GR80, SINAR (SINAR (wild mustard)) | Pre-emergence activity GR80, SASKR (SASKR (russian thistle)) | inhibition at 30 g/ha [1, 3] [%] | inhibition at 100 g/ha [1, 4] [%] | inhibition at 300 g/ha [1, 5] [%] | inhibition at 900 g/ha [1, 6] [%] | PPI activity GR80, GALAP [1] | inhibition at 30 g/ha (ALOMY (blackgrass); [7]) [%] | inhibition at 100 g/ha (ALOMY (blackgrass); [8]) [%] | inhibition at 300 g/ha (ALOMY (blackgrass); [9]) [%] | inhibition at 900 g/ha (ALOMY (blackgrass); [10]) [%] | PPI activity GR80, ALOMY (ALOMY (blackgrass)) [g/ha] | inhibition at 30 g/ha [2, 11] [%] | inhibition at 100 g/ha [2, 12] [%] | inhibition at 300 g/ha [2, 13] [%] | PPI activity GR80, AGSST [2] [g/ha] | inhibition at 30 g/ha (corn (ZEAMX); 30 g/ha) [%] | inhibition at 100 g/ha (corn (ZEAMX); 100 g/ha) [%] | inhibition at 300 g/ha (corn (ZEAMX); 300 g/ha) [%] | inhibition at 900 g/ha (corn (ZEAMX); 900 g/ha) [%] | also measured
CCSC(F)(F)S(=O)(=O)c1ncn(C(=O)N(CC)CC)n1 [Example 8, 1-(N,N-diethylcarbamoyl)-3-[difluoro(ethylthio)methylsulfonyl]-1,2,4-triazole] | [empty] | 300 g/ha | 0 | 100 | 100 | 100 | 100 g/ha | 0 | 95 | 100 | 100 | 100 | 100 | 100 | 100 | 30 | 0 | 5 | 65 | 95 | inhibition at 900 g/ha [2, 14]: 100%
C=C(Br)CC(F)(F)S(=O)(=O)c1ncn(C(=O)N(CC)CC)n1 [Example 19] | 30 g/ha | 100 g/ha | 100 | 100 | 50 | 100 | 100 g/ha | 50 | 70 | 100 | 100 | 30 | 90 | 100 | 90 | 10 | 0 | 10 | 10 | 35 | inhibition at 10 g/ha ([1]; Galium aparine, weed, PPI application, 10 g/ha, read-out: Percent inhibition GALAP): 85%; inhibition at 10 g/ha (ALOMY (blackgrass); Alopecurus myosuroides, weed, PPI application, 10 g/ha, read-out: Percent inhibition ALOMY): 60%; inhibition at 10 g/ha ([2]; Agrostis stolonifera, weed, PPI application, 10 g/ha, read-out: Percent inhibition AGSST): 60%; inhibition at 900 g/ha [2, 14]: 100%; inhibition at 10 g/ha (corn (ZEAMX); 10 g/ha): 0%
C=C(CC(F)(F)S(=O)(=O)c1ncn(C(=O)N(CC)CC)n1)C[Si](C)(C)C [Example 20] | [empty] | [empty] | – | – | – | – | [empty] | – | – | – | – | 100 | – | – | – | 30 | – | – | – | – | Percent inhibition GALAP ([1]; weed, PPI application, 10 g/ha): 0%; Percent inhibition GALAP ([1]; weed, PPI application, 30 g/ha): 0%; Percent inhibition GALAP [1, 15]: 50%; Percent inhibition GALAP [1, 16]: 90%; Percent inhibition GALAP [1, 17]: 100%; Percent inhibition ALOMY (ALOMY (blackgrass); weed, PPI application, 10 g/ha): 0%; Percent inhibition ALOMY (ALOMY (blackgrass); weed, PPI application, 30 g/ha): 0%; Percent inhibition ALOMY (ALOMY (blackgrass); [15]): 20%; Percent inhibition ALOMY (ALOMY (blackgrass); [16]): 50%; Percent inhibition ALOMY (ALOMY (blackgrass); [17]): 100%; Percent inhibition AGSST ([2]; weed, PPI application, 10 g/ha): 0%; Percent inhibition AGSST ([2]; weed, PPI application, 30 g/ha): 10%; Percent inhibition AGSST [2, 15]: 85%; Percent inhibition AGSST [2, 16]: 75%; Percent inhibition AGSST [2, 17]: 100%; Percent inhibition ZEAMX (corn (ZEAMX); 10 g/ha): 0%; Percent inhibition ZEAMX (corn (ZEAMX); 30 g/ha): 0%; Percent inhibition ZEAMX (corn (ZEAMX); 100 g/ha): 0%; Percent inhibition ZEAMX (corn (ZEAMX); 300 g/ha): 20%; Percent inhibition ZEAMX (corn (ZEAMX); 900 g/ha): 40%
CCN(CC)C(=O)n1cnc(S(=O)(=O)C(F)F)n1 [Example 15, 1-(N,N-diethylcarbamoyl)-3-(difluoromethylsulfonyl)-1,2,4-triazole] | – | – | – | – | – | – | 30 g/ha | – | – | – | – | 100 | – | – | – | 100 | 0 | 20 | 60 | 85 | inhibition at 10 g/ha (corn (ZEAMX); 10 g/ha): 0%
CCN(CC)C(=O)n1cnc(S(=O)(=O)C(F)(F)C(=O)c2ccccc2)n1 [Example 6] | 300 g/ha | [empty] | – | – | – | – | 100 g/ha | – | – | – | – | 300 | – | – | – | 100 | – | – | – | – | –
